This is an account of results in ChEMBL document CHEMBL5620374, “Synthesis and bioevaluation of novel stilbene-based derivatives as tubulin/HDAC dual-target inhibitors with potent antitumor activities in vitro and in vivo” (Eur J Med Chem, 2023).

Data set [1] deals with K562. Put plainly: Induction of apoptosis in human K562 cells assessed as late apoptotic cells at 4 nM incubated for 48 hrs by Annexin V/PI staining based flow cytometry (reference value: 3.37 +/- 0.21 %). Type of data set: functional. Background: A flow cytometer gives signals particle by particle.
Data set [2] has as its target Histone deacetylase 2 (Homo sapiens, UniProt Q92769). Put plainly: Inhibition of HDAC2 in human K562 cells assessed as increase in Acetyl-histone H3 level at 0.01 to 1 uM incubated for 24 hrs by Western blot analysis. The class given is cell-based. The note with it: dose 0.01-1 µM. A general note: Immunoblotting shows a protein as a band on a membrane.
Data set [3] has as its system K562. Kind of data set: Induction of apoptosis in human K562 cells assessed as late apoptotic cells at 2 nM incubated for 48 hrs by Annexin V/PI staining based flow cytometry (reference value: 3.37 +/- 0.21 %). Type of data set: functional.
For data set [4], the system named is K562. Kind of data set: Inhibition of mitochondrial membrane potential in human K562 cells assessed as red fluorescence intensity at 2 nM incubated for 48 hrs by JC-1 staining based flow cytometry (reference value: 93.36 +/- 0.21 %). The class given is functional.
The subject of data set [5] is K562. Kind of data set: Induction of apoptosis in human K562 cells assessed as late apoptotic cells at 8 nM incubated for 48 hrs by Annexin V/PI staining based flow cytometry (reference value: 3.37 +/- 0.21 %). Type of data set: functional.
Data set [6] relates to H22. Put plainly: Antitumor activity against mouse H22 cells allografted in ICR mouse assessed as decrease in tumor volume at 10 to 20 mg/kg, iv qd for 17 days consecutively. Type of data set: functional, organism-based. As to conditions: dose 10-20 mg/kg, time 17.0 day.
Data set [7] concerns MDA-MB-231. Put plainly: Inhibition of cell migration in human MDA-MB-231 cells incubated for 48 hrs by crystal violet staining based transwell assay. The class given is functional. As to conditions: dose 2-8 nM.
A short description of data set [8]: Toxicity in ICR mouse allografted with mouse H22 cells assessed as toxic sign in liver at 10 to 20 mg/kg, iv qd for 17 days consecutively by H and E staining based analysis. Type of data set: organism-based. The note with it: in vivo, dose 10-20 mg/kg, time 17 day.

Molecules are shown by their SMILES. Calls of active or inactive are those of the source. The rule behind the calls is not given here.

Histone deacetylase 2, sequence (Q92769 whole entry): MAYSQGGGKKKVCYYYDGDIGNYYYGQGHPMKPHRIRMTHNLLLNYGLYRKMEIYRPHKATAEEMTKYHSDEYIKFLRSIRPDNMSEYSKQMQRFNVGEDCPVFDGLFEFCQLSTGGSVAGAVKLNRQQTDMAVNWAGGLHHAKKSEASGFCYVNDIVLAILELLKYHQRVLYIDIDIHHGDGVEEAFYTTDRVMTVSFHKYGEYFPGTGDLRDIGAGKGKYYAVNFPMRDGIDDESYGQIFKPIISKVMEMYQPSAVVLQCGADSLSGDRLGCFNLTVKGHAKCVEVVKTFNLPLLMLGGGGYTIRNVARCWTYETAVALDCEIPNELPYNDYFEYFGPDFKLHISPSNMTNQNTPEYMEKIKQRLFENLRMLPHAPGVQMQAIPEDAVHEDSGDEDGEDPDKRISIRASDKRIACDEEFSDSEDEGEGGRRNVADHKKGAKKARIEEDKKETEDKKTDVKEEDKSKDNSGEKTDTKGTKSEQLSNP

In the case of `C=C(c1ccc(OC)c(OC(F)C(=O)NO)c1)c1cc(C)nc2ccccc12` (stereo not drawn), the Activity in data set [1] is listed as 8.7%; in data set [3], 3.94%; in data set [5], 25.59%; in data set [8], “Non-Toxic”. Moreover, in data set [2], the inhibition entry was “Active”. The Flu intensity in data set [4] is given as 82.36%. Also, the result in data set [6] was Active. Moreover, the inhibition result in data set [7] is “Dose-Dependent Effect”.
